Data as given in PubChem BioAssay AID330 (DTP/NCI, 2004).
Several values for one entry are separate records, joined by “and”; a condition that tells them apart may be missing. Equal entries are not always repeated. Toxic doses and inconclusive results are not listed.

Tested on: P388 leukemia ip, CD2F1 mice, survival T/C
Test: NCI In Vivo Anticancer Drug Screen. Data for tumor model P388 Leukemia (intraperitoneal) in CD2F1 (CDF1) mice
Conditions: endpoint: median survival time, higher = longer survival
Outline: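 Mice carrying the transplanted tumor received test compound or vehicle. Survival was recorded in each group, and the value is the treated-group measurement divided by that of the vehicle-treated control group.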

[1] = dose: 50.0 mg/kg/injection, schedule: Q01DX009 (ip), vehicle: Klucel (hydroxypropylcellulose) (HPC)
[2] = dose: 100.0 mg/kg/injection, schedule: Q01DX009 (ip), vehicle: Klucel (hydroxypropylcellulose) (HPC)
[3] = dose: 200.0 mg/kg/injection, schedule: Q01DX009 (ip), vehicle: Klucel (hydroxypropylcellulose) (HPC)
[4] = dose: 50.0 mg/kg/injection, schedule: Q01DX009 (ip), vehicle: saline with Tween-80
[5] = dose: 100.0 mg/kg/injection, schedule: Q01DX009 (ip), vehicle: saline with Tween-80
[6] = dose: 100.0 mg/kg/injection, schedule: Q04DX003 (ip), vehicle: saline with Tween-80

In the case of `C=C(C)C12CC(C)C34OC5(CCCCCCCC(C)C6C(C)C(OC(=O)c7ccccc7)C(O)(C(O)C7(CO)OC7C3C1O5)C64)O2` (configuration not stated), the T/C (dose: 3.0 micrograms/kg/injection, schedule: Q01DX009 (ip), vehicle: saline + alcohol) is reported as 107 % of control, the T/C (dose: 5.0 micrograms/kg/injection, schedule: Q01DX009 (ip), vehicle: saline + alcohol) is reported as 109 % of control and the T/C (dose: 10.0 micrograms/kg/injection, schedule: Q01DX009 (ip), vehicle: saline + alcohol) is reported as 118 % of control.
In the case of `[N-]=[N+]=N[Si](c1ccccc1)(c1ccccc1)c1ccccc1`, the T/C [1] is reported as 103 % of control, the T/C [2] is reported as 101 % of control and the T/C [3] is reported as 103 % of control.
In the case of `Nc1nc(/C=C(/O)c2ccccc2)c2ncn(C3OC(CO)C(O)C3O)c2n1` (configuration not stated), the T/C [4] is reported as 106 % of control, the T/C [5] is reported as 103 % of control and the T/C (dose: 200.0 mg/kg/injection, schedule: Q01DX009 (ip), vehicle: saline with Tween-80) is reported as 114 % of control.
In the case of `O=C(Nc1ccccc1-c1ccccc1)C(Cl)Cl`, the T/C [1] is reported as 101 % of control, the T/C [2] is reported as 104 % of control and the T/C [3] is reported as 87 % of control. The T/C (dose: 400.0 mg/kg/injection, schedule: Q01DX009 (ip), vehicle: Klucel (hydroxypropylcellulose) (HPC)) was 100 % of control.
In the case of `N#Cc1ccc(NC(=O)Nc2nncs2)cc1`, the T/C (dose: 12.5 mg/kg/injection, schedule: Q01DX009 (ip), vehicle: distilled water + Tween-80) is reported as 115 % of control and 116 % of control, the T/C (dose: 25.0 mg/kg/injection, schedule: Q01DX009 (ip), vehicle: distilled water + Tween-80) is reported as 122 % of control and the T/C (dose: 200.0 mg/kg/injection, schedule: Q01DX009 (ip), vehicle: distilled water + Tween-80) is reported as 104 % of control.
With `COC1OCN(Cc2ccccc2)CC1(C)C` (configuration not stated) the T/C [4] was 108 % of control and the T/C [5] was 120 % of control.
For `CCCCCCCCCCCCCCCCCC1=NC(C)CC(C)(C)O1` (configuration not stated), the T/C (dose: 100.0 mg/kg/injection, schedule: Q01DX009 (ip), vehicle: saline) was 95 % of control and the T/C (dose: 200.0 mg/kg/injection, schedule: Q01DX009 (ip), vehicle: saline) was 104 % of control.
With `C[C@]12CC[C@H]3[C@@H](CCC4=CC(=O)CC[C@@]43C)[C@@H]1CC[C@@H]2OC(=O)Cc1ccc(N(CCCl)CCCl)cc1` the T/C [6] was 112 % of control and the T/C (dose: 264.0 mg/kg/injection, schedule: Q04DX003 (ip), vehicle: saline with Tween-80) was 109 % of control.
In the case of `C=CCNC(=S)n1cnc(N)n1`, the T/C (dose: 30.0 mg/kg/injection, schedule: Q01DX005 (ip), vehicle: saline with Tween-80) is reported as 107 % of control, the T/C (dose: 60.0 mg/kg/injection, schedule: Q01DX005 (ip), vehicle: saline with Tween-80) is reported as 105 % of control and 108 % of control and the T/C (dose: 120.0 mg/kg/injection, schedule: Q01DX005 (ip), vehicle: saline with Tween-80) is reported as 115 % of control and 96 % of control.
With `Cc1cc(F)nc(F)n1` the T/C (dose: 50.0 mg/kg/injection, schedule: Q01DX005 (ip), vehicle: saline) was 98 % of control and the T/C (dose: 100.0 mg/kg/injection, schedule: Q01DX005 (ip), vehicle: saline) was 98 % of control.
`NNC(=O)CCC(=O)NN` was tested, and the T/C (dose: 100.0 mg/kg/injection, schedule: Q04DX002 (ip), vehicle: saline) was 101 % of control and the T/C (dose: 200.0 mg/kg/injection, schedule: Q04DX002 (ip), vehicle: saline) was 96 % of control.
In the case of `CC(C)CCC(=O)c1ccoc1`, the T/C (dose: 0.46 mg/kg/injection, schedule: Q01DX005 (ip), vehicle: saline with Tween-80) is reported as 103 % of control, the T/C (dose: 0.93 mg/kg/injection, schedule: Q01DX005 (ip), vehicle: saline with Tween-80) is reported as 97 % of control and the T/C (dose: 1.87 mg/kg/injection, schedule: Q01DX005 (ip), vehicle: saline with Tween-80) is reported as 97 % of control. For the same compound, the T/C (dose: 3.75 mg/kg/injection, schedule: Q01DX005 (ip), vehicle: saline with Tween-80) was 89 % of control.
`Cc1nc(Nc2ccc(F)cc2)c2c(C)c(CC(C)C)[nH]c2n1` was tested, and the T/C (dose: 50.0 mg/kg/injection, schedule: Q01DX005 (ip), vehicle: Klucel (hydroxypropylcellulose) (HPC)) was 87 % of control, the T/C (dose: 100.0 mg/kg/injection, schedule: Q01DX005 (ip), vehicle: Klucel (hydroxypropylcellulose) (HPC)) was 91 % of control and the T/C (dose: 200.0 mg/kg/injection, schedule: Q01DX005 (ip), vehicle: Klucel (hydroxypropylcellulose) (HPC)) was 100 % of control.
`CC(=O)NCCN=Cc1ccccc1` was tested, and the T/C [6] was 100 % of control, the T/C (dose: 200.0 mg/kg/injection, schedule: Q04DX003 (ip), vehicle: saline with Tween-80) was 100 % of control and the T/C (dose: 400.0 mg/kg/injection, schedule: Q04DX003 (ip), vehicle: saline with Tween-80) was 100 % of control.
`COc1ccc(S(=O)(=O)N/N=C\c2cc(I)cc(I)c2O)cc1` was tested, and the T/C (dose: 50.0 mg/kg/injection, schedule: Q01DX005 (ip), vehicle: saline with Tween-80) was 101 % of control, the T/C (dose: 100.0 mg/kg/injection, schedule: Q01DX005 (ip), vehicle: saline with Tween-80) was 102 % of control and the T/C (dose: 200.0 mg/kg/injection, schedule: Q01DX005 (ip), vehicle: saline with Tween-80) was 100 % of control.
